According to paper PMC9570594, “Development of Novel Pyridine-Thiazole Hybrid Molecules as Potential Anticancer Agents” (Molecules, 2022):

What was measured:
[1] = test system: MOLT-4 (Leukemia); test: NCI five-dose SRB assay; type: cell-based; conditions: Homo sapiens, 48 h
[2] = test system: RPMI-8226 (Leukemia); test: NCI five-dose SRB assay; type: cell-based; conditions: Homo sapiens, 48 h
[3] = test system: SR (Leukemia); test: NCI five-dose SRB assay; type: cell-based; conditions: Homo sapiens, 48 h
[4] = test system: A549/ATCC (Non-Small Cell Lung Cancer); test: NCI five-dose SRB assay; type: cell-based; conditions: Homo sapiens, 48 h
[5] = test system: HOP-62 (Non-Small Cell Lung Cancer); test: NCI five-dose SRB assay; type: cell-based; conditions: Homo sapiens, 48 h
[6] = test system: NCI-H226 (Non-Small Cell Lung Cancer); test: NCI five-dose SRB assay; type: cell-based; conditions: Homo sapiens, 48 h
[7] = test system: NCI-H23 (Non-Small Cell Lung Cancer); test: NCI five-dose SRB assay; type: cell-based; conditions: Homo sapiens, 48 h
[8] = test system: NCI-H460 (Non-Small Cell Lung Cancer); test: NCI five-dose SRB assay; type: cell-based; conditions: Homo sapiens, 48 h
[9] = test system: Non-Small Cell Lung Cancer cell lines (MG_MID); test: NCI five-dose SRB assay; type: cell-based; conditions: Homo sapiens, 48 h
[10] = test system: Colo 205 (Colon Cancer); test: NCI five-dose SRB assay; type: cell-based; conditions: Homo sapiens, 48 h
[11] = test system: KM12 (Colon Cancer); test: NCI five-dose SRB assay; type: cell-based; conditions: Homo sapiens, 48 h
[12] = test system: SW-629 (Colon Cancer); test: NCI five-dose SRB assay; type: cell-based; conditions: Homo sapiens, 48 h
[13] = test system: SF-295 (CNS Cancer); test: NCI five-dose SRB assay; type: cell-based; conditions: Homo sapiens, 48 h
[14] = test system: SNB-75 (CNS Cancer); test: NCI five-dose SRB assay; type: cell-based; conditions: Homo sapiens, 48 h
[15] = test system: CNS Cancer cell lines (MG_MID); test: NCI five-dose SRB assay; type: cell-based; conditions: Homo sapiens, 48 h
[16] = test system: MDA-MB-435 (Melanoma); test: NCI five-dose SRB assay; type: cell-based; conditions: Homo sapiens, 48 h
[17] = test system: SK-MEL-2 (Melanoma); test: NCI five-dose SRB assay; type: cell-based; conditions: Homo sapiens, 48 h
[18] = test system: UACC-257 (Melanoma); test: NCI five-dose SRB assay; type: cell-based; conditions: Homo sapiens, 48 h
[19] = test system: UACC-62 (Melanoma); test: NCI five-dose SRB assay; type: cell-based; conditions: Homo sapiens, 48 h
[20] = test system: IGROV-1 (Ovarian Cancer); test: NCI five-dose SRB assay; type: cell-based; conditions: Homo sapiens, 48 h
[21] = test system: TK-10 (Renal Cancer); test: NCI five-dose SRB assay; type: cell-based; conditions: Homo sapiens, 48 h
[22] = test system: UO-31 (Renal Cancer); test: NCI five-dose SRB assay; type: cell-based; conditions: Homo sapiens, 48 h
[23] = test system: T-47D (Breast Cancer); test: NCI five-dose SRB assay; type: cell-based; conditions: Homo sapiens, T47D, 48 h
[24] = test system: MCF-7 breast cancer cells; test: Mitochondrial membrane potential, JC-1 (flow cytometry); type: cell-based, human; conditions: MCF-7, 5 µM, 24 h, control 5.1 ± 0.7%
Experimental: A decrease in the mitochondrial membrane potential (MMP, ΔΨm) is one of the earliest changes observed at apoptosis. […] The MCF-7 cells had depolarized mitochondria, reaching 25.3 ± 1.5% and 24.7 ± 0.4% of the cell population treated with the compound 4 and 7, respectively. In the control, there were only 5.1 ± 0.7% cells with a decreased ΔΨm.
Disruption of the MMP was assessed using the lipophilic cationic probe 5,5,6,6-tetrachloro-1,1,3,3-tetraethylbenzimidazolcarbocyanine iodide (JC-1 MitoScreen kit; BD Biosciences San Diego, CA, USA), as described previously. The entire assay was performed according to the manufacturer’s instructions provided with the purchased kit. […] Briefly, unfixed MCF-7 cells were washed and resuspended in the PBS supplemented with the JC-1 dye. Then, cells were incubated for 15 min at room temperature (RT) in the dark, washed, and resuspended in the PBS for the immediate BD FACSCanto II flow cytometry analysis.

[25] = test system: Colo 205 (Colon Cancer); test: NCI one-dose SRB assay; conditions: 10 μM, 48 h
[26] = test system: HT29 (Colon Cancer); test: NCI one-dose SRB assay; conditions: 10 μM, 48 h
Experimental: Tested compounds were added to the culture at a single concentration (10^−5 M) and the cultures were incubated for 48 h. End point determinations were made with a protein binding dye, Sulphorhodamine B (SRB). […] The percentage growth was evaluated spectrophotometrically versus controls not treated with test agents.

[27] = test system: LOX IMVI (Melanoma); test: NCI one-dose SRB assay; conditions: 10 μM, 48 h
Experimental: Primary anticancer assays (Table 3) on a panel of 60 cancer cell lines at one dose-assay (10^−5 M) were performed according to the NCI protocol, as described elsewhere [31, 32, 33, 34, 35].
A primary anticancer assay was performed on a panel of approximately sixty human tumor cell lines derived from nine neoplastic diseases, in accordance with the protocol of the Drug Evaluation Branch, National Cancer Institute, Bethesda [31, 32, 33, 34, 35]. Tested compounds were added to the culture at a single concentration (10^−5 M) and the cultures were incubated for 48 h. End point determinations were made with a protein binding dye, Sulphorhodamine B (SRB). […] The percentage growth was evaluated spectrophotometrically versus controls not treated with test agents.

[28] = test system: SK Mel-2 (Melanoma); test: NCI one-dose SRB assay; conditions: 10 μM, 48 h
[29] = test system: MCF-7 (breast); test: MTT assay of cell viability; conditions: Homo sapiens, MCF7, 72 h, MCF-7; 72 h of incubation, M ± SD
[30] = test system: Jurkat (leukemia); test: MTT assay of cell viability; conditions: Homo sapiens, 72 h
[31] = test system: A549 (lung); test: MTT assay of cell viability; conditions: Homo sapiens, A549, 72 h
[32] = test system: SK-OV-3 (ovarian); test: MTT assay of cell viability; conditions: Homo sapiens, SK-OV-3, 72 h
[33] = test system: KB3-1 (cervix); test: MTT assay of cell viability; conditions: Homo sapiens, KB 3-1, 72 h, KB3-1; 72 h of incubation, M ± SD
[34] = test system: murine macrophages of J774.2 line; test: MTT assay of cell viability; conditions: Mus musculus, J774.2, 72 h
[35] = test system: human embryonic kidney HEK293 cells; test: MTT assay of cell viability; conditions: HEK293, 72 h
[36] = test system: human epidermal keratinocytes of HaCaT line; test: MTT assay of cell viability; conditions: 72 h
[37] = test system: BALB-3T3 (normal mouse fibroblasts); test: MTT assay of cell viability; conditions: BALB/3T3, 72 h
[38] = test system: panel of cancer cell lines; test: MTT assay, summary over the tumor cell lines; conditions: Homo sapiens, 72 h, read-out: IC50 toward tumor cells (depending on tumor cell line)
[39] = test system: MCF-7 breast cancer cells; test: Annexin V-FITC/PI binding assay (flow cytometry); conditions: MCF-7, 5 µM, 24 h; control 4.4 ± 0.6%

CCOC(=O)c1ccc(NC(=O)CSC(CC(=O)c2sc(Nc3ccccn3)nc2C)c2ccccc2F)cc1 (stereo not drawn) [Compound 4, Ethyl 4-[[2-[1-(2-Fluorophenyl)-3-[4-methyl-2-(2-pyridylamino)thiazol-5-yl]-3-oxopropyl]sulfanylacetyl]amino]benzoate]
GI50 [1]: 32.2 µM | GI50 [2]: 8.29 µM | GI50 [3]: 24.1 µM | GI50 [4]: 75.7 µM | GI50 [5]: 37.5 µM | GI50 [6]: 2.52 µM | GI50 [7]: 22.7 µM | GI50 [8]: 31.2 µM | GI50 [9]: 27.6 µM | GI50 [10]: > 100 µM | GI50 [11]: 55.6 µM | GI50 [12]: 75.3 µM | GI50 [13]: 32.2 µM | GI50 [14]: 3.58 µM | GI50 [15]: 32.7 µM | GI50 [16]: 26.3 µM | GI50 [17]: 44.9 µM | GI50 [18]: 38.4 µM | GI50 [19]: 16.1 µM | GI50 [20]: 12.1 µM | GI50 [21]: 82.3 µM | GI50 [22]: 3.19 µM | GI50 [23]: 18 µM | cells with depolarized mitochondria (decreased ΔΨm) [24]: 25.3 ± 1.5% | Growth % [25]: −34.08% | Growth % [26]: −28.32% | Growth % [27]: −76.78% | Growth % [28]: −31.22% | IC50 [29]: 2.79 ± 1.31 µM | IC50 [30]: 5.36 ± 0.16 µM | IC50 [31]: 8.05 ± 0.24 µM | IC50 [32]: 7.87 ± 0.23 µM | IC50 [33]: 7.63 ± 0.38 µM | IC50 [34]: > 50 µM | IC50 [35]: > 50 µM | IC50 [36]: > 50 µM | IC50 [37]: 7.79 ± 0.38 µM | IC50 [38]: 0.57 to 7.8 µM | apoptotic cells (sum of early and late apoptotic cells) [39]: 42.7 ± 7.0%
